Data as given in EP0174458A1, “Use of 4H-1,4 benzothiazines in the prophylaxis and therapy of diseases of the breath ways, inflammations, rheumatisms, thromboembolic diseases, ischemia and infarctus, heart rhythm disorders, arteriosclerosis and dermatosis, therapeutic agents for this purpose and reactive compounds which are …” (BAYER AG, priority 1984, dated 1986).

Tests used:
[1] = tested on: durch Arachidonsäure induzierten Thromboembolie; assay: Protection against arachidonic acid induced thromboembolism; assay type: in vivo; conditions: 100 mg/kg p.o., Kaninchen, 1,5 mg/kg Na-arachidonat
Experimental: In diesem Modell wirken Substanzen, die mit der Prostaglandin- und Thromboxanbiosynthese interferieren. Kaninchen werden 1,5 mg/kg Na-arachidonat in eine marginale Ohrvene injiziert. Die Tiere sterben innerhalb von Minuten, vermutlich aufgrund vasospastischer Cyclooxygenase- und Lipoxygenaseprodukte sowie embolisierender Plättchenthromben. Vorbehandlung mit den erfindungsgemäßen Verbindungen schützt die Tiere, so daß diese überleben. Literatur: Silver, M.J. et al., Science 183, 1085, 1974 Seuter, F., Busse, W.D., Agents and Actions, Suppl. 4, 175, 1979.

Prostacyclin (PGI2) = assay: Prostacyclin stimulation in aortic rings ex vivo; conditions: 30 mg/kg p.o., Ratten
Experimental: Aortenringe von mit Prüfsubstanzen vorbehandelten Ratten werden 10 Minuten bei 37°C in Trispuffer (pH 7,8) inkubiert. Das sich bildende Prostacyclin wird nach Umwandlung zu dem stabilen 6-Keto-PGF radioimmunologisch bestimmt. Literatur: Mc Intyre, D.E., Salzman, E.W., Thrombos. Haemostas. 46, 19, 1981. Seuter, F. et al., 6th International Symposium on Atherosclerosis, Abstr. 270, Berlin 1982.

5-Lipoxygenase = molecular target: T1, 5-Lipoxygenase (Homo sapiens, UniProt P09917); assay: cell-based
T1 sequence (P09917 1-674): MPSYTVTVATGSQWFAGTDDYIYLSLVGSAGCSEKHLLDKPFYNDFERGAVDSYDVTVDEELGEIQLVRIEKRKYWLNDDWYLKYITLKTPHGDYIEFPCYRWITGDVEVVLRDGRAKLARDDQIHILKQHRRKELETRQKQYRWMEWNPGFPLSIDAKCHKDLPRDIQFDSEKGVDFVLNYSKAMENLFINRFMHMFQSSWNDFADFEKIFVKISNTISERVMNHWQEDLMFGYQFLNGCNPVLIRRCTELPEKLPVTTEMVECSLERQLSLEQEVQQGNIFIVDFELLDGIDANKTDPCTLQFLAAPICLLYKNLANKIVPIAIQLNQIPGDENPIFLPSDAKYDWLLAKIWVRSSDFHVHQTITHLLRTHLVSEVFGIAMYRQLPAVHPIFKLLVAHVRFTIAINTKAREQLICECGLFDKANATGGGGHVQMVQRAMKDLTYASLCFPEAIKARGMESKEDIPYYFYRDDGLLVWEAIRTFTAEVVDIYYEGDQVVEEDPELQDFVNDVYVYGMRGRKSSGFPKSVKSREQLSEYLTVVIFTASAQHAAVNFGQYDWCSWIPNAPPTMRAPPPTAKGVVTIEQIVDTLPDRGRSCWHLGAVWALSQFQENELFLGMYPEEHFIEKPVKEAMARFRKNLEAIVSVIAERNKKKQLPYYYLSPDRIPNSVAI
Source text: Die Hemmung der Freisetzung von 5-HETE und Leukotrien B4 aus den Leukozyten stellt ein Maß für den lipoxygenasehemmenden Effekt der erfindungsgemäßen Verbindungen dar.
Der Test mit den Humanleukozyten wurde nach Borgeat und Samuelsson (J. Biol. Chem. 254, 2643, 1979 und Proc. Natl. Acad. Sci. USA, 76, 2148, 1979) durchgeführt.
Die im vorliegenden Beispiel verwendeten Human PMN-Leukozyten (w95 %) wurden aus heparinisiertem Vollblut durch eine Dextran-Sedimentation und anschließende Dichtegradiententrennung (Ficoll-Paque) gewonnen (vgl. A. Boyum, Scand. J. Immunol., 5, Suppl 5, 9, 1976).
2 x 10^7 Zellen/ml wurden in Ca2+-haltigem Dulbecco-Phosphat-Puffer suspendiert und in Anwesenheit bzw. Abwesenheit von Lipoxygenasehemmer mit dem Calcium-Ionophor A 23187 stimuliert.
Nach 15 Minuten wurden die Lipoxygenaseprodukte aus dem angesäuerten Inkubationsmedium extrahiert und mittels HPLC getrennt. Die Hochdruckflüssigkeitschromatographie wurde auf Lichrosorb RP-18(5 µm)-Säulen durchgeführt. Das Laufmittel war Methanol/Wasser/Eisessig 69/ 31/0.01. Die Flußrate betrug 1 ml/min. Leukotrien B4 wurde bei 280 nm, die HETE-Derivate bei 232 nm mittels der UV-Absorption bestimmt.

O=C1CCCC2=C1Sc1ccccc1N2 [Herstellungs-beispiel 16]
Überlebensrate % [1]: 66,6%

CSCCOC(=O)C1=C(C)Nc2ccccc2S1 [Herstellungsbeispiel 7]
Fähigkeit von Aortenringen Prostacyclin zu synthetisieren (Prostacyclin (PGI2)): erhöht

CC(Cc1ccc(O)c(O)c1)C(C)Cc1ccc(O)c(O)c1 (stereo not shown) [NDGA, Nordihydroguaretsäure]
inhibition at 0.5 µg/mL (5-Lipoxygenase; 0.25 h, read-out: Hemmung): ~50%

CC(C(=O)O)c1ccc2oc(-c3ccc(Cl)cc3)nc2c1 (stereo not shown) [Benoxaprofen]
IC50 (5-Lipoxygenase): 33.1 to 166 µM
